The values below are quoted from earlier work in patent publication US10413528B2, “Methods to inhibit infection during wound healing with topical compositions including amino acids” (priority 2014, dated 2019).

Conditions in the first data set: not given
As for `CC(C)C[C@H](N)C(=O)O` [leucine], the “maximum solubility in water” value is 22.4 mg/mL.

The same data set, now with this note: in water.
With `N[C@@H](Cc1c[nH]cn1)C(=O)O` [histidine], the maximum aqueous solubility was 41.6 mg/mL.

Regarding `NC(=O)CC[C@H](N)C(=O)O` [glutamine], the maximum aqueous solubility is 35 mg/mL.

In the case of `CSCC[C@H](N)C(=O)O` [methionine], the maximum aqueous solubility was 53.7 mg/mL.

For the molecule `CC(C)[C@H](N)C(=O)O` [valine], the maximum aqueous solubility was 85 mg/mL.

Regarding `CC(C)C[C@H](N)C(=O)O` [leucine], the maximum aqueous solubility is 22.4 mg/mL.

As to `C[C@H](N)C(=O)O` [alanine], the maximum aqueous solubility was 166.5 mg/mL.
